Measured values: patent US11583507B2, “Direct AMPK activator compounds” (SOCIETE DES PRODUITS NESTLE S.A., priority 2018, dated 2023)

Key:
[1] = target: T1, AMPK α2β1γ1 R298G (211 R298G) mutant (Homo sapiens, UniProt P54619+P54646+Q9Y478, R299G); assay: AMPK in vitro activity assay (HTRF-KinEASE), γ1 R298G mutant; type: biochemical; settings: mutation in the γ1 AMP binding pocket
T1 construct: His; made in house; host or cells: bacteria
Procedure: (§1) Lusianthridin (CAS 87530-30-1) was isolated from Thunia alba fruit. It was sourced from Analyticon (NP-012362). The plant was purchased through Analyticon's biomaterial supplier in 2003. The country of origin is Nepal. The AMPK heterotrimers were expressed in bacteria and purified through the His-α subunit by nickel purification. AMPK complexes were purified through gel filtration and phosphorylated by incubation with CaMKKβ, and further purified with a final gel filtration purification step. Phosphorylated purified AMPK was incubated with varying concentrations of ligand for 30 mins using substrate and reagents from the HTRF-KinEASE Cisbio assay kit (STK S1 Kit). Phosphorylation of the substrate was measured by incubating with donor and acceptor antibodies for 2 h at room temperature as per the manufacturer's protocol (and Coulerie et al., (2016) PMID: 27792327) and phosphorylated peptide detected by performing HTRF. The 665 nm/620 nm ratio was determined and the results are plotted as fold activation compared to the respective AMPK complex without any compound.

[2] = tested on: AMPK substrate, acetyl-CoA carboxylase (ACC); assay: Western blot of pACC / total ACC in U2OS Flp-In T-REx lysates; type: cell-based; settings: varying concentrations
Procedure: U2OS Flp-In T-REx cells were seeded at 100 K in a 96-well plate and left overnight at 37 C in DMEM GlutaMAX (Thermo Fisher Scientific) supplemented with 10% (vol/vol) FBS and 100 U/ml penicillin G, and 100 μg/ml streptomycin. Cells were treated for 1 h with varying concentrations of Lusianthridin in media lacking FBS and then cells were lysed in 50 μl of Cisbio lysis buffer #1 supplemented with blocking solution as per the manufacturer's protocol (Cisbio). Cells were lysed for 30 mins at room temperature before 16 μl of lysate was incubated with 4 μl of the HTRF antibodies (1:40 dilution of the acceptor and donor (p)ACC antibodies, as per the manufacturers protocol). Lysates were incubated overnight with the antibodies before 665 nm/620 nm ratio was determined using a MolecularDevices i3 plate reader (with a HTRF cartridge add-on). For western blot analysis, SDS-sample buffer was added to the remainder of the lysate, denatured at 95 C and then subjected to western blot analysis with phospho-specific and total ACC antibodies (Cell Signalling). Bands were visualized by incubating with Li-Cor secondary antibody and scanned on a Li-Cor Odyssey machine.

AMPK substrate, ACC = assay: pACC HTRF assay in mouse primary hepatocytes; type: cell-based; settings: 1 h incubation at 37 C, dose-dependent
Procedure: Hepatocyte isolation: The liver was first perfused with 50 ml perfusion buffer (Krebs-Hepes buffer with […] EDTA), followed with 50 ml collagenase A buffer (Krebs-Hepes buffer with 5 mM CaCl2 and 0.5 mg/ml collagenase). […] Hepatocytes were left to attach (3-4 h) and cultured overnight in M199 supplemented with antibiotics and 100 nM dexamethasone. Cells were used for experiments the following morning. Primary hepatocytes were seeded at 15 K cells in a 96-well plate overnight. Cells were treated for 1 h with varying concentrations of Lusianthridin in media and then cells were lysed in 50 μl of Cisbio lysis buffer #1 supplemented with blocking solution as per the manufacturer's protocol (Cisbio). Cells were lysed for 30 mins at room temperature before 16 μl of lysate was incubated with 4 μl of the HTRF antibodies. Lysates were incubated overnight with the antibody before 665 nm/620 nm ratio was determined using a MolecularDevices i3 plate reader (with a HTRF cartridge add-on).

C2C12 AMPKα1α2−/− cells = assay: Glucose uptake (3H-2-deoxyglucose) in differentiated C2C12 AMPKα1α2−/− cells; type: cell-based, murine; settings: 30 or 100 μM Lusianthridin, 300 nM Insulin, 1 h at 37° C
Source text: C2C12 AMPK α1α2 double knockout cell lines were generated by transient transfection of wild type cells with plasmids containing Cas9 enzyme linked to green fluorescent protein expression and Cas9 guide RNA sequences targeting the murine AMPK α1 subunit (sc-430618, SantaCruz) and the murine AMPK α2 subunit (sc-430803, SantaCruz). Cells positive for green fluorescent protein expression were single cell sorted by flow cytometry into 96-well plates containing growth medium and analysed for loss of AMPK signaling following expansion of the clones.
Differentiated C2C12 AMPKα1α2+/+ and AMPKα1α2−/− cells were treated with either vehicle (0.2% DMSO), 30 μM or 100 μM Lusianthridin for 1 h at 37° C. […] Finally, differentiated C2C12 AMPKα1α2+/+ and AMPKα1α2−/− cells were treated with either vehicle (0.2% DMSO) or 100 μM Lusianthridin in the presence or absence of 15 nM Wortmanin for 1 h at 37° C. For the Wortmanin experiments, differentiated C2C12 cells were pre-incubated with DMSO or Wortmanin for 1 h prior to treatment.
Glucose uptake was determined by monitoring the uptake of 3H-2-deoxyglucose into cells. C2C12 AMPKα1α2+/+ and AMPKα1α2−/− cells were maintained in DMEM GlutaMAX supplemented with 20% (vol/vol) FBS and 100 U/ml penicillin G, and 100 μg/ml streptomycin. […] Cells were lysed and the quantity of ^3H determined in these samples using a scintillation counter.

AMPKα2β1γ1 (211) = target: T2, AMPKα2β1γ1 (211) (Homo sapiens, UniProt P54619+P54646+Q9Y478); assay: AMPK in vitro activity assay (HTRF-KinEASE), phosphorylated bacterially-expressed complex; type: biochemical; settings: fold activation vs complex without compound; 30 mins incubation
T2 construct: His; made in house; host or cells: bacteria
T2 sequence (P54646 whole entry): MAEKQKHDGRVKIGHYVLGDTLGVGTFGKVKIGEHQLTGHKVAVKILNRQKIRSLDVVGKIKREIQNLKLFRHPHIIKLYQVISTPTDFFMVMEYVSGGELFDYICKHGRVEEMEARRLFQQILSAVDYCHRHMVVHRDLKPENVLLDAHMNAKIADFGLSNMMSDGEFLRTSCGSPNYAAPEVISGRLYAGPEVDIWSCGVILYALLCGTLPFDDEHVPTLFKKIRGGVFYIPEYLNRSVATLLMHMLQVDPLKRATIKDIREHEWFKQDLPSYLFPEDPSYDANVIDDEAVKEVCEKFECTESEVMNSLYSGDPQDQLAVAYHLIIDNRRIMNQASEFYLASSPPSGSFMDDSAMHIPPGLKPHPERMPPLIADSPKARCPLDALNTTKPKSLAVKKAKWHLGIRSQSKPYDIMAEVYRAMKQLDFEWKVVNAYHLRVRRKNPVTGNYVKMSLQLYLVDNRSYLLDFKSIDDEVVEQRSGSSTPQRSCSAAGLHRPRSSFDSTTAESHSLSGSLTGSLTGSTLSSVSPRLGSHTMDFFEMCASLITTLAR
T2 sequence (Q9Y478 whole entry): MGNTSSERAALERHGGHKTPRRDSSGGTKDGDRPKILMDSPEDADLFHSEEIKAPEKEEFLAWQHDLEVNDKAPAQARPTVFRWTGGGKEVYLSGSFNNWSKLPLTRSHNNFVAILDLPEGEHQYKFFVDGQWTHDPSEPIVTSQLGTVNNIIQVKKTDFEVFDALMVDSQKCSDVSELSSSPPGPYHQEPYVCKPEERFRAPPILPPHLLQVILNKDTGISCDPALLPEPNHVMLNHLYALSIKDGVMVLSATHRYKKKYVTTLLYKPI
T2 sequence (P54619 whole entry): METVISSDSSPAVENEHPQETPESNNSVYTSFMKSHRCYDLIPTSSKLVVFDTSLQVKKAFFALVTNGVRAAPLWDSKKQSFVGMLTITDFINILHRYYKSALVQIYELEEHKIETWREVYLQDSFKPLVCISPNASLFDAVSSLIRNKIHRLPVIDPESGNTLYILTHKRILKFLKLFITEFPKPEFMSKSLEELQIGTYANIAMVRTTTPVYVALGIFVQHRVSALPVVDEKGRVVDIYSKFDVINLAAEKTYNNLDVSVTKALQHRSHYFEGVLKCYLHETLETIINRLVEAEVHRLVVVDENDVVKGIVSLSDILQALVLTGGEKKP
Procedure: as §1

AMPK α2β2γ1 (221) = target: T3, AMPK α2β2γ1 (221) (Homo sapiens, UniProt O43741+P54619+P54646); assay: AMPK in vitro activity assay (HTRF-KinEASE), β2-containing complex; type: biochemical; settings: fold activation vs complex without compound
T3 construct: His; made in house; host or cells: bacteria
T3 sequence (P54646 whole entry): as the sequence (P54646 whole entry) above
T3 sequence (O43741 whole entry): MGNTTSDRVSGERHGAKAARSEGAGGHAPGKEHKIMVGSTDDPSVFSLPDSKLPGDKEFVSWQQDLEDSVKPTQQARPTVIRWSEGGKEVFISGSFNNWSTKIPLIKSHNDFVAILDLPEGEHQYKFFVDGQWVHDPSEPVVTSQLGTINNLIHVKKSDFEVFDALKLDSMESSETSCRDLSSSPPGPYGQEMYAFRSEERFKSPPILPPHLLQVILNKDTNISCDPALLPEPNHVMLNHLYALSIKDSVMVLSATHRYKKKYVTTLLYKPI
T3 sequence (P54619 whole entry): as the sequence (P54619 whole entry) above
Procedure: as §1

[3] = tested on: differentiated C2C12 cells; assay: Glucose uptake (3H-2-deoxyglucose) into differentiated C2C12 cells; type: cell-based; settings: Lusianthridin 100 μM for 4 h at 37 C
Procedure: C2C12 cells were maintained in DMEM GlutaMAX supplemented with 10% (vol/vol) FBS and 100 U/ml penicillin G, and 100 μg/ml streptomycin. C2C12 myoblasts were differentiated into myotubes by 7 days of culture in DMEM GlutaMAX supplemented with 2% (vol/vol) horse serum and antibiotics. Cells were transferred to serum-free media for 24 hours, before equilibrating with bicarbonate-free medium prior to treatment. Cells were treated with Control (DMSO 1% final concentration) or 100 μM Lusianthridin in the presence of ^3H-2-deoxyglucose (in Krebs-Hepes buffer containing sodium pyruvate). Cells were lysed and the quantity of ^3H determined in these samples using a scintillation counter.
Activation of AMPK in muscle cells has been previously shown to increase glucose uptake. […] Differentiated C2C12 cells were treated with either control or 100 μM Lusianthridin for 4 h at 37 C. Glucose uptake was determined by monitoring the uptake of ^3H-2-deoxyglucose into cells. […] This is consistent with the important role of AMPK in mediating glucose uptake in muscle.

T1 sequence (P54646 whole entry): as the sequence (P54646 whole entry) above
T1 sequence (Q9Y478 whole entry): as the sequence (Q9Y478 whole entry) above
T1 sequence (P54619 whole entry R299G): as the sequence (P54619 whole entry) above, with R299G counted along it

COc1cc(O)c2c(c1)CCc1cc(O)ccc1-2 [Lusianthridin, 7-Methoxy-9,10-dihydrophenanthrene-2,5-diol]
activation of AMPK α2β1γ1 γ1 R298G mutant complexes [1]: still activates
phosphorylation of ACC by western blot (AMPK activation in cells) [2]: activates AMPK in cells
phosphorylation of the AMPK substrate ACC (pACC HTRF) (AMPK substrate, ACC): increases
glucose uptake (fold change relative to control) (C2C12 AMPKα1α2−/− cells): abolished
activation of bacterially-expressed AMPKα2β1γ1 complexes (AMPKα2β1γ1 (211)): Activates
activation of β2-containing AMPK complexes (α2β2γ1) (AMPK α2β2γ1 (221)): does not activate
fold increase in glucose uptake relative to control [3]: ~2 fold
